The values that follow come from patent publication US5773438A, “Synthetic matrix metalloprotease inhibitors and use thereof” (Glycomed Incorporated, priority 1994, dated 1998).

The subject of test [1] is PdiBu-Induced Epidermal Hyperplasia. Briefly: PdiBu-induced epidermal hyperplasia mouse model (psoriasis). The class given is in vivo, hairless mice.
Experimental: The phorbol ester, PdiBu (20 nmol in 20 μl if acetone) was applied to both ears of hairless mice (h/h) (approximately 1 cm^2 each). The test compounds (in total volume of 20 μl) were then applied to the right ear immediately (15 to 30 min) following PdiBu. The left ear of each animal received an equivalent amount (20 μl) of vehicle. Test compounds (and vehicle) were reapplied at 6 and 18 hours following PdiBu. Treatment times were staggered to allow exact time intervals to be obtained. At 30 hours after PdiBu, animals were anesthetized, and ear thickness values were obtained using a microcaliper. The weights of punch biopsies (6mm) were then obtained. Histology was performed on selected samples taken at 30 hours.
Left ear in each animal served as vehicle-treated controls (PdiBu+ETOH). Thus, the controls for this series include: 1) Untreated controls; 2) PdiBu plus vehicle alone (included for each mouse tested); 3) PdiBu plus AHA; 4) PdiBu plus Lidex® as a positive control.
The subject of test [2] is MMPs. Particulars: cited from earlier work.
Test [3] concerns the target T1, Natural human 72kD gelatinase (Homo sapiens, UniProt P08253).
T1 sequence (P08253 110-660): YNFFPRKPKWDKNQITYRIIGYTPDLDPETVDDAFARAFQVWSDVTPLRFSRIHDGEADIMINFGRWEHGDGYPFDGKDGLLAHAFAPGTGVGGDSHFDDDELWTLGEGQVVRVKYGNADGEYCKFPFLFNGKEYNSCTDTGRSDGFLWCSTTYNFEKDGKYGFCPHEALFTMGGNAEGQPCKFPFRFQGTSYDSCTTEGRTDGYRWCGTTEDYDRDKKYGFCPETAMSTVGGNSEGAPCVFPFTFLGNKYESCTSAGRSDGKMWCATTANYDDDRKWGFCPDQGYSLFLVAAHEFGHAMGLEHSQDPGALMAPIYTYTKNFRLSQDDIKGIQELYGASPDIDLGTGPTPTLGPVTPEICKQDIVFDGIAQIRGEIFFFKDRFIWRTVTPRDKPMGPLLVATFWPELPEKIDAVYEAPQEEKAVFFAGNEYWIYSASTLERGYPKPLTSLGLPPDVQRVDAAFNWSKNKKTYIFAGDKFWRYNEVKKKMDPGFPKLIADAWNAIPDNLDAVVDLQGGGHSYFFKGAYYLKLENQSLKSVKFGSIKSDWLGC
Briefly: inhibition of 72kD gelatinase (Table 2). It counts as biochemical. Particulars: read-out: 72kD G inhibitory activity.
Experimental: (§1) Specifically, assay of inhibition activity can be conducted as follows. […] Assays for inhibition of human stromelysin are conducted as described by Teahan, J., et al., Biochemistry (1989) 20:8497-8501.
(§2) Assay of inhibition activity can be conducted using a fluorogenic substrate developed by Knight et al., FEBS Letters (1992) 296:263. This method uses a fluorometer to determine the rate of substrate hydrolysis in a 96 well plate format. Reaction rates are determined at several substrate concentrations, and multiple inhibitor levels. The data are analyzed by Lineweaver-Burk, Dixon and Henderson plot analyses (Enzyme Kinetics (1975) Irwin Segal (John Wiley & Sons, Inc., publishers), and as described by Henderson, Biochem J. (1972) 127:321). The substrate levels range from 10-30μM. […] Inhibitors may be assayed against purified 72 kD gelatinase, 92 kD gelatinase, neutrophil collagenase, stromelysin or other proteases as appropriate. The enzymes are activated at 37° C. with APMA (4-aminophenylmercuric acetate), and the assays are carried out at room temperature.

Test [4] concerns the target 92kD gelatinase (Homo sapiens, UniProt P14780). As to the kind of experiment: inhibition of 92kD gelatinase (Table 2). Conditions: read-out: 92kD G inhibitory activity. It counts as biochemical.
The target in test [5] is Stromelysin (Homo sapiens, UniProt P08254). As to the kind of experiment: inhibition of stromelysin (Table 2). Particulars: read-out: Strom inhibitory activity. The class given is biochemical.
Chain of Stromelysin (P08254 100-477): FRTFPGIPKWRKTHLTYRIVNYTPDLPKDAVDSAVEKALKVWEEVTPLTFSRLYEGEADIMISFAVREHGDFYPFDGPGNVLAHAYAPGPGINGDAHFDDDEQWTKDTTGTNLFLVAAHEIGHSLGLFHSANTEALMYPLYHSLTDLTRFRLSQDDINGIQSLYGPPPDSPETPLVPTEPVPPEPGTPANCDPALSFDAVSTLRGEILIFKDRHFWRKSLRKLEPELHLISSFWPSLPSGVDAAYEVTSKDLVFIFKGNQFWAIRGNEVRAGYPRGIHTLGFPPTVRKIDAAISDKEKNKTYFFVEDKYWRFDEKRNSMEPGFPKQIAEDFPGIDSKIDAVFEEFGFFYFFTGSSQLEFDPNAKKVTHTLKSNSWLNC
Experimental: as §1, §2
Test [6] deals with Recombinant neutrophil collagenase (Homo sapiens, UniProt P22894). As to the kind of experiment: inhibition of recombinant neutrophil collagenase (Table 2). It counts as biochemical. Particulars: read-out: NC inhibitory activity.
Chain of Recombinant neutrophil collagenase (P22894 101-467): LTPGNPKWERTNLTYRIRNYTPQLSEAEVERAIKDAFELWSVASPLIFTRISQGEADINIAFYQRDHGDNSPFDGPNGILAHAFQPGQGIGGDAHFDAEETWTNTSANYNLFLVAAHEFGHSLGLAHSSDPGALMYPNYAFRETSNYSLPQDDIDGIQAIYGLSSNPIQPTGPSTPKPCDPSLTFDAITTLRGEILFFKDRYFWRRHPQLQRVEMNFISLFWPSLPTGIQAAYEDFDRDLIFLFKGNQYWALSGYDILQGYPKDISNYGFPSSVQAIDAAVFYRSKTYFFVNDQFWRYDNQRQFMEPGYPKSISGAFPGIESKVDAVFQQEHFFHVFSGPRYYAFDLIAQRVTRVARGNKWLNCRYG
Experimental: as §1, §2
Test [7] deals with T2, Human gingival fibrblast collagenase (Homo sapiens, UniProt P03956).
T2 construct: endogenous in cells; host or cells: human gingival fibroblasts
T2 sequence (P03956 100-469): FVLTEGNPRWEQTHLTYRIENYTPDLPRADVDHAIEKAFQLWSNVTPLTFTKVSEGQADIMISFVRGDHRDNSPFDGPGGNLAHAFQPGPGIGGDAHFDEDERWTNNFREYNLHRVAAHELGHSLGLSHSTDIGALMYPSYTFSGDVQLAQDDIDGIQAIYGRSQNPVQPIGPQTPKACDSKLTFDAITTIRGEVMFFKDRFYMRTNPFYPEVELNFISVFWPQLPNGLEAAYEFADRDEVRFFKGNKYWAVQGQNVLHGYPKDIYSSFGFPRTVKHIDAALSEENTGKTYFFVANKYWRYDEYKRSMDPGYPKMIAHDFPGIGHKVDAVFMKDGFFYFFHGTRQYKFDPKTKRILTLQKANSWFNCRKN
As to the kind of experiment: inhibition of human gingival fibroblast collagenase (Table 2). The class given is biochemical. Particulars: read-out: HGFC inhibitory activity.
Experimental: as §1, §2

The subject of test [8] is angiogenesis. Conditions: cited from earlier work.

Molecules are shown by their SMILES.

Chain of 92kD gelatinase (P14780 107-707 limits assumed): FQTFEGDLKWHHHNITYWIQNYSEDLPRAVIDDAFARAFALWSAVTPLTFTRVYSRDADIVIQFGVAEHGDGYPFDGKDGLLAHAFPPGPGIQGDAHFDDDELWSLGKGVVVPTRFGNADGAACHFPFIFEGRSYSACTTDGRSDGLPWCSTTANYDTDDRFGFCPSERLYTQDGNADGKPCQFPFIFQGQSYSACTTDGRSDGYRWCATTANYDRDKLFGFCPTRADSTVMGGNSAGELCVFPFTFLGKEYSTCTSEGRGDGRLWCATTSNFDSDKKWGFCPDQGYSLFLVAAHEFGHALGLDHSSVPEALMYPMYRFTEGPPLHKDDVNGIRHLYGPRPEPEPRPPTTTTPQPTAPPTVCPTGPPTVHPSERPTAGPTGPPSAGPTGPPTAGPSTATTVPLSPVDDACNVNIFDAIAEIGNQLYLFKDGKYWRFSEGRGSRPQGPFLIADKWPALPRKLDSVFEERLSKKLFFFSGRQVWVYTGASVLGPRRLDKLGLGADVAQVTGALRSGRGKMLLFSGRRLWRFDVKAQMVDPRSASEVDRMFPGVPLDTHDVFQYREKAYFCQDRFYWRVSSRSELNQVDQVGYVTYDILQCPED

In the case of `CC(=O)NO` [AHA, acetohydroxamic acid, reference compound], the “ear thickness (AHA control)” value in test [1] (PdiBu + AHA, 0.53 μmol/ear at 0.25, 6.0 and 24 hours) came out at 36.8 ± 1.3 inch × 10^-3. Also, in test [1] (PdiBu + AHA, 0.53 μmol/ear at 0.25, 6.0 and 24 hours, in mg), the “biopsy weight (AHA control)” value stood at 24.1 ± 1.2. Also, in test [1] (Positive Control: Lidex (fluocinonide) section, single experiment), the “ear thickness (positive control section)” value is reported as 15.8 ± 0.4. The “biopsy weight (positive control section)” value in test [1] (Positive Control: Lidex (fluocinonide) section, single experiment, in mg) worked out at 9.7 ± 0.3. Moreover, in test [1] (topical), the “effect on PdiBu-induced ear thickness” value was “did not alter” and the “effect on PdiBu-induced increase in punch biopsy weight” value was “did not alter”. For the same compound, the “inhibitory effects on MMPs” value in test [2] was “devoid of inhibitory effects on MMPs”.
For `CC(C)C[C@H](CC(=O)O)C(=O)N[C@@H](Cc1c[nH]c2ccccc12)C(=O)NCc1ccccc1` [Compound 57, N-[2-Isobutyl-3-hydroxycarbonylpropanoyl]-L-tryptophan-benzylamide], the Ki in test [3] is 0.057 µM; in test [4], 0.037 µM; in test [5] it was 5.14 µM; in test [6], 0.02 µM; in test [7], 0.0022 µM.
The matching figures for `C[C@H](NC(=O)[C@H](Cc1c[nH]c2ccccc12)NC(=O)[C@@H](CCC(=O)O)NC(=O)OC(C)(C)C)c1ccccc1` [Compound 78]: above 10 µM, above 10 µM, above 10 µM, above 10 µM and 2 µM.
The matching figures for `C[C@H](NC(=O)[C@H](Cc1c[nH]c2ccccc12)NC(=O)[C@@H](CCC(=O)NO)NC(=O)OC(C)(C)C)c1ccccc1` [Compound 79, Boc-D-gamma-Hydroxamidoglutamyl-L-tryptophan-(S)-methylbenzylamide]: above 10 µM, 21.1 µM, above 10 µM, above 10 µM and 0.06 µM.
The matching figures for `C[C@H](NC(=O)[C@H](Cc1c[nH]c2ccccc12)NC(=O)[C@@H](CC(=O)O)NC(=O)OC(C)(C)C)c1ccccc1` [Compound 81]: above 10 µM, above 10 µM, above 10 µM, above 10 µM and 0.5 µM.
As for `C[C@H](NC(=O)[C@H](Cc1c[nH]c2ccccc12)NC(=O)[C@@H](CC(=O)NO)NC(=O)OC(C)(C)C)c1ccccc1` [Compound 82, Boc-D-beta-hydroxamidoaspartyl-1 -tryptophan-(S)-methylbenzylamide], the Ki is 9.26 µM in test [3]; 3.58 µM in test [4]; above 10 µM in test [5]; 3.26 µM in test [6]; 0.08 µM in test [7].
Regarding `CCCCC[C@H](CC(=O)NO)C(=O)N[C@H](C(=O)N1CCC[C@H]1CO)C(C)C` [actinonin], the “activity as an angiogenesis inhibitor” value in test [8] was “angiogenesis inhibitor”.
